Measured values as given in US20090099231A1, “3-Sulfonylamino-Pyrrolidine-2-One Derivatives as Factor Xa Inhibitors” (priority 2005, published 2009).
Where a name gives a salt, the structure may show the parent alone.

Columns and labels:
[1] = biological target: human Factor Xa (Homo sapiens, UniProt P00742); assay: In vitro assay for inhibition of Factor Xa (fluorogenic assay, Rhodamine 110 bis-Cbz-glycylglycyl-L-arginine amide substrate); assay type: biochemical; settings: for Ki: Ki=IC50/(1+[Substrate]/Km), i.e. IC50 divided by 1.6, human Factor Xa fluorogenic assay; for Factor Xa inhibitory activity: human Factor Xa 0.0003 U.ml-1, substrate 10 μM, 15 min preincubation, room temperature, pH 7.4
Chain of human Factor Xa (P00742 235-488 limits assumed): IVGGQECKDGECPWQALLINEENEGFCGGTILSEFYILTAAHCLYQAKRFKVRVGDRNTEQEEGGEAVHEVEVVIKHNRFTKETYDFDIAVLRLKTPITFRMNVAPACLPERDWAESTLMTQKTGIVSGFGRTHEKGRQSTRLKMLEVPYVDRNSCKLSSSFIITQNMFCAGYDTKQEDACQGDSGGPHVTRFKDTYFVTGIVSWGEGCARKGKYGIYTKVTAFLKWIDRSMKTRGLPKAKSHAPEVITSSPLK
Chain of human Factor Xa (P00742 41-179 partner limits assumed): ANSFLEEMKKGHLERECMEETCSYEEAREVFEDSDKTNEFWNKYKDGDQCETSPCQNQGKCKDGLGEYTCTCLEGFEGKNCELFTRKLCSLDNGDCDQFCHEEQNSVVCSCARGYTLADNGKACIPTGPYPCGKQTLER
Method: Compounds of the present invention were tested for their Factor Xa inhibitory activity as determined in vitro by their ability to inhibit human Factor Xa in a fluorogenic assay, using Rhodamine 110, bis-Cbz-glycylglycyl-L-arginine amide as the fluorogenic substrate. Compounds were diluted from a 10 mM stock solution in dimethylsulfoxide at appropriate concentrations. Assay was performed at room temperature using buffer consisting of: 50 mM Tris-HCl, 150 mM NaCl, 5 mM CaCl2, pH 7.4 containing human Factor Xa (final concentration of 0.0003 U.ml-1). Compound and enzyme were preincubated for 15 min prior to addition of the substrate (final concentration of 10 μM). The reaction was stopped after 3 hrs with the addition of H-D-Phe-Pro-Arg-Chloromethylketone. An LJL-Analyst fluorimeter was used to monitor fluorescence with 485 nm excitation/535 nm emission. To obtain IC50 values the data were analysed using ActivityBase® and XLfit®.
Ki=IC50/(1+[Substrate]/Km)
The Ki value for the above assay can be obtained by dividing the IC50 value by 1.6.

[2] = test system: human plasma; assay: Measurement of Prothrombin Time (PT), time to clot formation in plasma; settings: pooled plasma from 4 donors, test compound 0.03 to 100 uM, Thromboplastin C Plus
Method: Blood was collected into a sodium citrate solution (ratio 9:1) to give a final concentration of 0.38% citrate. Plasma was generated by centrifugation of citrated blood samples at 1200×g for 20 min at 4° C. and stored at −20° C. until use.
The PT test was performed using the BCS Coagulation Analyzer (Dade Behring). For assay, 50 ul of plasma containing test compound at concentrations ranging from 0.03 to 100 uM (made from a 100 uM stock containing 1% DMSO in plasma) was combined with 100 ul of Thromboplastin C Plus (Dade Behring). Upon addition of the reagents, absorbance at 405 nm was monitored and time to clot formation is determined (normal range for human plasma is 10.6-12.4 seconds).

| SMILES | Ki [1] | Factor Xa inhibitory activity [1] | activity in prothrombin time (PT) test [2] |
| --- | --- | --- | --- |
| Cl.O=C1[C@@H](NS(=O)(=O)c2cc3ccc(Cl)cc3s2)CCN1c1ccc2c(c1)CCNC2 [Example 3, 6-Chloro-N-[(3S)-2-oxo-1-(1,2,3,4-tetrahydro-6-isoquinolinyl)-3-pyrrolidinyl]-1-benzothiophene-2-sulfonamide hydrochloride] | < 10 nM | exhibit Factor Xa inhibitory activity | exhibit activity |
| Cc1cc2c(cc1N1CC[C@H](NS(=O)(=O)c3ccc4c(Cl)c[nH]c4c3)C1=O)CCNC2.Cl [Example 29, 3-Chloro-N-[(3S)-1-(7-methyl-1,2,3,4-tetrahydro-6-isoquinolinyl)-2-oxo-3-pyrrolidinyl]-1H-indole-6-sulfonamide hydrochloride] |  | exhibit Factor Xa inhibitory activity | exhibit activity |
| O=C1[C@@H](NS(=O)(=O)c2ccc3c(Cl)c[nH]c3c2)CCN1c1ccc2c(c1)CCNC2.O=CO [Example 4, 3-Chloro-N-[(3S)-2-oxo-1-(1,2,3,4-tetrahydro-6-isoquinolinyl)-3-pyrrolidinyl]-1H-indole-6-sulfonamide formate] |  | exhibit Factor Xa inhibitory activity | exhibit activity |
| Cl.O=C1[C@@H](NS(=O)(=O)CCc2ccc(Cl)s2)CCN1c1ccc2c(c1)CNCC2 [Example 12, 2-(5-Chloro-2-thienyl)-N-[(3S)-2-oxo-1-(1,2,3,4-tetrahydro-7-isoquinolinyl)-3-pyrrolidinyl]ethanesulfonamide hydrochloride] |  | exhibit Factor Xa inhibitory activity | exhibit activity |
| Cl.O=C1[C@@H](NS(=O)(=O)c2ccc3c(Cl)c[nH]c3c2)CCN1c1ccc2c(c1F)CCNC2 [Example 19, 3-Chloro-N-[(3S)-1-(5-fluoro-1,2,3,4-tetrahydro-6-isoquinolinyl)-2-oxo-3-pyrrolidinyl]-1H-indole-6-sulfonamide hydrochloride] |  | exhibit Factor Xa inhibitory activity | exhibit activity |
| Cl.O=C1[C@@H](NS(=O)(=O)c2ccc3c(Cl)c[nH]c3c2)CCN1c1cc2c(cc1Cl)CNCC2 [Example 26, 3-Chloro-N-[(3S)-1-(7-chloro-1,2,3,4-tetrahydro-6-isoquinolinyl)-2-oxo-3-pyrrolidinyl]-1H-indole-6-sulfonamide hydrochloride] | < 10 nM | exhibit Factor Xa inhibitory activity | exhibit activity |
| O=C1[C@@H](NS(=O)(=O)c2cc3ccc(Cl)cc3[nH]2)CCN1c1ccc2c(c1)CCNC2.O=CO [Example 6, 6-Chloro-N-[(3S)-2-oxo-1-(1,2,3,4-tetrahydro-6-isoquinolinyl)-3-pyrrolidinyl]-1H-indole-2-sulfonamide formate] | < 10 nM | exhibit Factor Xa inhibitory activity | exhibit activity |
| O=C1[C@@H](NS(=O)(=O)c2ccc3cc[nH]c3c2)CCN1c1ccc2c(c1)CNCC2.O=CO [Example 15, N-[(3S)-2-Oxo-1-(1,2,3,4-tetrahydro-7-isoquinolinyl)-3-pyrrolidinyl]-1H-indole-6-sulfonamide formate] |  | exhibit Factor Xa inhibitory activity |  |
| O=C1[C@@H](NS(=O)(=O)c2ccc3cc[nH]c3c2)CCN1c1ccc2c(c1)CCNC2.O=CO [Example 5, N-[(3S)-2-Oxo-1-(1,2,3,4-tetrahydro-6-isoquinolinyl)-3-pyrrolidinyl]-1H-indole-6-sulfonamide formate] |  |  | exhibit activity |
| CN([C@H]1CCN(c2ccc3c(c2)CCNC3)C1=O)S(=O)(=O)/C=C/c1ccc(Cl)s1 [Example 34, (E)-2-(5-Chloro-2-thienyl)-N-methyl-N-[(3S)-2-oxo-1-(1,2,3,4-tetrahydro-6-isoquinolinyl)-3-pyrrolidinyl]ethenesulfonamide hydrochloride] | < 10 nM | exhibit Factor Xa inhibitory activity |  |
